Marks after values point to notes of the source that are not given here. Ends that are not written are not given here.
Columns and labels:
rice Senia seeds = test: Phytotoxicity, rice germination assay; assay type: in vivo, Oryza sativa L.; conditions: for Phytotoxicity (germination): minimal peptide concentration causing significant alteration of shoot length: 12 Senia seeds per treatment germinated 7 days in 0, 8, 16, 32, 64 μM peptide, 28°C, one-way ANOVA; for Effect on rice seedling development at high concentrations: germination test, Senia seeds, 7 days, 125 and 250 μM also tested
Protocol: For each treatment, a total of 12 surface-sterilized Senia seeds were germinated in 500 μl water or peptide solution at the appropriate concentration (0, 8, 16, 32 and 64 μM) in a culture chamber (28 ± 1°C with a photoperiod of 16 h light / 8 h dark under fluorescent Sylvania Cool White lamps) for seven days. Seedling morphology was recorded and shoot length was measured.

tobacco leaves = test: Phytotoxicity, tobacco leaf inoculation assay; assay type: in vivo, Nicotiana benthamiana; conditions: for Phytotoxicity at 150 μM (inoculation): lesion diameter: 100 μl of 150 μM peptide inoculated into tobacco leaf mesophyll, three days, mean and standard error, at least three inoculations
Protocol: Tobacco (Nicotiana benthamiana) plants were grown from seed in a heated glasshouse and used between 20 and 30 days old. One hundredμl chemically synthesized peptides at 50, 100, 150 or 250 μM were inoculated into the mesophylls of fully expanded tobacco leaves (previously wounded with a needle), using a syringe without needle, and plants were kept at standard glasshouse conditions for three days. Up to six independent inoculations were carried out in a single leaf, and at least three independent inoculations were performed per peptide and concentration, randomly distributed in different leaves and plants. Toxicity was measured as the lesion diameter.

[1] = system: erythrocyte suspensions of fresh human blood; test: Hemolytic activity (hemoglobin release); assay type: cell-based; conditions: human erythrocytes 5% v/v, TRIS/NaCl pH 7.2, 150 μM peptide, 1 h 37°C, A540
Protocol: Hemoglobin release from erythrocyte suspensions of fresh human blood (5% v/v) was used to evaluate hemolytic activity of synthetic peptides. Briefly, aseptically collected blood (BD vacutainer K2E System with EDTA, Belliver Industrial State, Plymouth, UK) was centrifuged at 6,000 g for 5 min, washed with 10 mM TRIS, 150 mM NaCl, pH 7.2 and suspended in the same buffer. Fifty μl of peptide solutions at 300 μM were mixed with 50 μl aliquots of erythrocyte suspensions and incubated for 1h at 37 °C with shaking. After centrifugation, the supernatants were transferred to microplate wells with 80 μl H2O and the 540 nm absorbance was monitored with a Bioscreen plate reader. Hemolysis percentages were calculated relative to mellitin and TRIS buffer.

[2] = system: erythrocyte suspensions of fresh human blood; conditions: human erythrocytes 5% v/v, TRIS/NaCl pH 7.2, 1 h 37°C, A540, relative to mellitin; confidence interval for α = 0.05; cited from earlier work
mice = conditions: cited from earlier work
[3] = system: Dickeya chrysanthemi 1552-10-1 (Dc); test: In vitro growth inhibition (MIC), Dickeya chrysanthemi; conditions: 10^8 bacterial CFU/ml suspension in TSB, microtiter plate, 25°C 48 h, OD 600 nm; three replicates, two experimental replicates
Protocol: (§1) Peptides were solubilized in sterile Milli-Q H2O to a concentration of 1 mM and filter sterilized through a 0.22 μm pore filter. […] Bacterial strains were stored at −80°C in Luria Bertani (LB) broth with glycerol (20%). After 24 h (Ea, Pss and Dc) or 48 h (Xav) growth in LB agar at 25°C, bacterial colonies were scraped off the surface, suspended in sterile H2O and adjusted to 10^8 CFU/ml. The fungal strain was stored at 4°C in the particulate solid carrier perlite, on fresh potato dextrose agar (PDA). Fv cultures were prepared in potato dextrose broth (PDB) and incubated for one week at 25°C in the dark in a rotary shaker at 125 rpm. They were filtered through several layers of sterile cheesecloth to eliminate macroconidia and mycelial growth. The effluent was centrifuged at 8,000 rpm for 20 min at 4°C and the pellet was suspended in sterile water. Microconidia concentration was determined in a counting chamber.
(§2) Serial dilutions of synthetic peptides were prepared at 400, 200, 100, 50, 25, 12.5 and 6 μM. […] Microplates were incubated at 25°C for 48 h (bacterial strains) or 22°C for 6 days (Fv), and optical densities at 600 nm were recorded hourly (every two hours for Fv) after 20 s shaking. […]

[4] = system: Xanthomonas axonopodis pv. vesicatoria 2133-2 (Xav); test: In vitro growth inhibition (MIC), Xanthomonas axonopodis pv. vesicatoria; conditions: 10^8 bacterial CFU/ml suspension in TSB, microtiter plate, 25°C 48 h, OD 600 nm; three replicates, two experimental replicates
Protocol: as §1, §2

[5] = system: Erwinia amylovora PMV6076 (Ea); test: In vitro growth inhibition (MIC), Erwinia amylovora; conditions: 10^8 bacterial CFU/ml suspension in TSB, microtiter plate, 25°C 48 h, OD 600 nm; three replicates, two experimental replicates; MIC = lowest concentration with no growth
Protocol: as §1, §2

[6] = system: Pseudomonas syringae pv. syringae EPS94 (Pss); test: In vitro growth inhibition (MIC), Pseudomonas syringae pv. syringae; conditions: 10^8 bacterial CFU/ml suspension in TSB, microtiter plate, 25°C 48 h, OD 600 nm; three replicates, two experimental replicates
Protocol: as §1, §2

## CC[C@H](C)[C@H](NC(=O)[C@H](CCCCN)NC(=O)[C@H](CCCCN)NC(=O)[C@H](Cc1ccccc1)NC(=O)[C@H](CC(C)C)NC(=O)[C@H](CCCCN)NC(=O)[C@@H](N)CCCCN)C(=O)N[C@@H](CC(C)C)C(=O)N[C@@H](CCCCN)C(=O)N[C@@H](Cc1ccc(O)cc1)C(=O)N[C@@H](CC(C)C)C(=O)N[C@@H](CCCCN)C(=O)N[C@@H](CC(=O)O)C(=O)N[C@@H](CCC(=O)O)C(=O)N[C@@H](CC(C)C)C(N)=O [BP100.1]
Rice Senia seeds
  Phytotoxicity (germination): minimal peptide concentration causing significant alteration of shoot length: 64 µM
Tobacco leaves
  Phytotoxicity at 150 μM (inoculation): lesion diameter: 1.17 cm
[1]
  Hemolytic activity at 150 μM, ratio between each peptide and the reference peptide BP100: <1

## CC[C@H](C)[C@H](NC(=O)[C@H](CC(C)C)NC(=O)[C@H](CCCCN)NC(=O)[C@H](Cc1ccc(O)cc1)NC(=O)[C@H](CC(C)C)NC(=O)[C@H](C)NC(=O)[C@@H]1CCCN1C(=O)CNC(=O)[C@H](C)NC(=O)[C@H](CC(C)C)NC(=O)[C@H](Cc1ccc(O)cc1)NC(=O)[C@H](CCCCN)NC(=O)[C@H](CC(C)C)NC(=O)[C@@H](NC(=O)[C@H](CCCCN)NC(=O)[C@H](CCCCN)NC(=O)[C@H](Cc1ccccc1)NC(=O)[C@H](CC(C)C)NC(=O)[C@H](CCCCN)NC(=O)[C@@H](N)CCCCN)[C@@H](C)CC)C(=O)N[C@@H](CCCCN)C(=O)N[C@@H](CCCCN)C(=O)N[C@@H](Cc1ccccc1)C(=O)N[C@@H](CC(C)C)C(=O)N[C@@H](CCCCN)C(=O)N[C@@H](CCCCN)C(=O)N[C@@H](CCCCN)C(=O)N[C@@H](CC(=O)O)C(=O)N[C@@H](CCC(=O)O)C(=O)N[C@@H](CC(C)C)C(N)=O [BP100.2i]
Rice Senia seeds
  Phytotoxicity (germination): minimal peptide concentration causing significant alteration of shoot length: 16 µM
Tobacco leaves
  Phytotoxicity at 150 μM (inoculation): lesion diameter: 1.32 ± 0.06^b cm
[1]
  Hemolytic activity at 150 μM, ratio between each peptide and the reference peptide BP100: 4

## CC[C@H](C)[C@H](NC(=O)[C@H](CCCCN)NC(=O)[C@H](CCCCN)NC(=O)[C@H](Cc1ccccc1)NC(=O)[C@H](CC(C)C)NC(=O)[C@H](CCCCN)NC(=O)[C@@H](N)CCCCN)C(=O)N[C@@H](CC(C)C)C(=O)N[C@@H](CCCCN)C(=O)N[C@@H](Cc1ccc(O)cc1)C(=O)N[C@@H](CC(C)C)C(N)=O [BP100]
Rice Senia seeds
  Phytotoxicity (germination): minimal peptide concentration causing significant alteration of shoot length: 64 µM
  Effect on rice seedling development at high concentrations: barely effected root growth but almost completely inhibited shoot development
Tobacco leaves
  Phytotoxicity at 150 μM (inoculation): lesion diameter: 0.90 ± 0.05^a cm
[2]
  Hemolytic activity at 150 μM: 22.0 ± 2.8%
mice
  Biocompatibility in acute oral toxicity tests: highly biocompatible
[3]
  Antimicrobial activity Dc, minimal inhibitory concentration (MIC): 5 to 10 µM
[4]
  Antimicrobial activity Xav, minimal inhibitory concentration (MIC): 5.0 to 10 µM

## CC[C@H](C)[C@H](NC(=O)[C@H](CCCCN)NC(=O)[C@H](CCCCN)NC(=O)[C@H](Cc1ccccc1)NC(=O)[C@H](CC(C)C)NC(=O)[C@H](CCCCN)NC(=O)[C@@H](N)CCCCN)C(=O)N[C@@H](CC(C)C)C(=O)N[C@@H](CCCCN)C(=O)N[C@@H](Cc1ccc(O)cc1)C(=O)N[C@@H](CC(C)C)C(=O)O [unmodified BP100]
Rice Senia seeds
  Phytotoxicity (germination): minimal peptide concentration causing significant alteration of shoot length: 64 µM
Tobacco leaves
  Phytotoxicity at 150 μM (inoculation): lesion diameter: 0.80 ± 0.02^a cm
[1]
  Hemolytic activity at 150 μM, ratio between each peptide and the reference peptide BP100: 1
[5]
  Antimicrobial activity Ea, minimal inhibitory concentration (MIC): 5.0 to 10 µM
[3]
  Antimicrobial activity Dc, minimal inhibitory concentration (MIC): 10 to 20 µM
[6]
  Antimicrobial activity Pss, minimal inhibitory concentration (MIC): 5.0 to 10 µM
[4]
  Antimicrobial activity Xav, minimal inhibitory concentration (MIC): 10 to 20 µM

## KKLFKKILKYLAGPAKKLFKKILKYLAGPAKKLFKKILKYLKDEL-NH2 (C-terminus assumed) [BP100.3]
Rice Senia seeds
  Phytotoxicity (germination): minimal peptide concentration causing significant alteration of shoot length: 16 µM
Tobacco leaves
  Phytotoxicity at 150 μM (inoculation): lesion diameter: 1.38 ± 0.04^b cm
[1]
  Hemolytic activity at 150 μM, ratio between each peptide and the reference peptide BP100: 4

## KKLFKKILKYLAGPAKKLFKKILKYLKDEL-NH2 (C-terminus assumed) [BP100.2]
Rice Senia seeds
  Phytotoxicity (germination): minimal peptide concentration causing significant alteration of shoot length: 32 µM
Tobacco leaves
  Phytotoxicity at 150 μM (inoculation): lesion diameter: 1.15 cm
[1]
  Hemolytic activity at 150 μM, ratio between each peptide and the reference peptide BP100: 3

## KKLFKKILKYLTTGLPALISAGPASILAPLGTTLYKLIKKFLKKKDEL-NH2 (C-terminus assumed) [BP100.2mi]
Rice Senia seeds
  Phytotoxicity (germination): minimal peptide concentration causing significant alteration of shoot length: 16 µM
Tobacco leaves
  Phytotoxicity at 150 μM (inoculation): lesion diameter: 1.46 ± 0.12^b cm
[1]
  Hemolytic activity at 150 μM, ratio between each peptide and the reference peptide BP100: 5

## mellitin: highly cytotoxic, potent hemolytic natural AMP, 26 amino acids, positive control [reference compound]
Rice Senia seeds
  Effect on rice seedling development at high concentrations: predominantly inhibited root growth while allowing moderate shoot development
Tobacco leaves; inoculation of 50 to 250 μM, same doses, positive control
  Lesions in tobacco leaves compared with BP100 and BP100 derivatives: more severe lesions
